Experimental data published in the NIST ThermoML archive (doi:10.1016/j.jct.2013.09.020).
± gives the expanded uncertainty stated by the source.

Conditions: Liquid, Calculated from knudsen effusion weight loss

## CCC[n+]1ccn(CC)c1.O=S(=O)([N-]S(=O)(=O)C(F)(F)F)C(F)(F)F
463.58 K
  vapor or sublimation pressure: 4.86e-05 ± 3.6e-06 kPa
465.61 K
  vapor or sublimation pressure: 5.55e-05 ± 3.7e-06 kPa
467.59 K
  vapor or sublimation pressure: 6.29e-05 ± 3.9e-06 kPa
469.6 K
  vapor or sublimation pressure: 7.12e-05 ± 4.4e-06 kPa
471.62 K
  vapor or sublimation pressure: 8.07e-05 ± 5e-06 kPa
473.62 K
  vapor or sublimation pressure: 9.11e-05 ± 5.6e-06 kPa
475.62 K
  vapor or sublimation pressure: 0.0001034 ± 6.3e-06 kPa
477.63 K
  vapor or sublimation pressure: 0.0001172 ± 7.2e-06 kPa
479.56 K
  vapor or sublimation pressure: 0.0001311 ± 8e-06 kPa
481.58 K
  vapor or sublimation pressure: 0.0001487 ± 9.1e-06 kPa
483.6 K
  vapor or sublimation pressure: 0.0001651 ± 1e-05 kPa
485.61 K
  vapor or sublimation pressure: 0.0001872 ± 1.2e-05 kPa
487.62 K
  vapor or sublimation pressure: 0.0002112 ± 1.3e-05 kPa
489.62 K
  vapor or sublimation pressure: 0.0002364 ± 1.5e-05 kPa

## Cn1cc[n+](C)c1.O=S(=O)([N-]S(=O)(=O)C(F)(F)F)C(F)(F)F [1,3-dimethylimidazolium bis((trifluoromethyl)sulfonyl)amide]
475.62 K
  vapor or sublimation pressure: 4.15e-05 ± 3.5e-06 kPa
477.6 K
  vapor or sublimation pressure: 4.7e-05 ± 3.6e-06 kPa
479.6 K
  vapor or sublimation pressure: 5.33e-05 ± 3.7e-06 kPa
481.59 K
  vapor or sublimation pressure: 6.01e-05 ± 3.8e-06 kPa
483.59 K
  vapor or sublimation pressure: 6.78e-05 ± 4.2e-06 kPa
485.6 K
  vapor or sublimation pressure: 7.63e-05 ± 4.7e-06 kPa
487.6 K
  vapor or sublimation pressure: 8.56e-05 ± 5.3e-06 kPa
489.62 K
  vapor or sublimation pressure: 9.57e-05 ± 5.9e-06 kPa
491.67 K
  vapor or sublimation pressure: 0.0001095 ± 6.7e-06 kPa
493.68 K
  vapor or sublimation pressure: 0.0001225 ± 7.5e-06 kPa
